Experimental data taken from patent publication US5665861A, “Cardiodilatin fragment, process for preparing same and use thereof” (HaemoPep Pharma GmbH, priority 1987, dated 1997).

Test system: membrane preparation from dog kidney cortex
Assay: Inactivation by membrane preparation from dog kidney cortex
Format: in vitro ADME
Source text: A unique proteolytic product separated by HPLC on a reverse phase column appears as a single peak which elutes prior to the intact peptide.

position of the inactivating cleavage of the ring structure: between Cys-105 and Phe-106
SMILES: CC[C@H](C)[C@@H]1NC(=O)[C@H](CCCNC(=N)N)NC(=O)[C@H](CC(=O)O)NC(=O)[C@H](CCSC)NC(=O)[C@H](CCCNC(=N)N)NC(=O)CNC(=O)CNC(=O)[C@H](Cc2ccccc2)NC(=O)[C@@H](NC(=O)[C@H](CO)NC(=O)[C@H](CO)NC(=O)[C@H](CCCNC(=N)N)NC(=O)[C@H](CCCNC(=N)N)NC(=O)[C@H](CC(C)C)NC(=O)[C@@H](N)CO)CSSC[C@@H](C(=O)N[C@@H](CC(N)=O)C(=O)N[C@@H](CO)C(=O)N[C@@H](Cc2ccccc2)C(=O)N[C@@H](CCCNC(=N)N)C(=O)N[C@@H](Cc2ccc(O)cc2)C(=O)O)NC(=O)CNC(=O)[C@H](CC(C)C)NC(=O)CNC(=O)[C@H](CO)NC(=O)[C@H](CCC(N)=O)NC(=O)[C@H](C)NC(=O)CNC1=O [ANF-(99-126)]
